Laboratory results reported in PubChem BioAssay (NCI).
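How tested: cells in 96-well plates exposed to compound for 48 hours at five concentrations. At the GI50, growth is halved. TGI is the concentration that stops growth completely.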

What was measured:
Assay in all cases: NCI tumour cell line growth inhibition, 48 h
[1] = system: ACHN renal
[2] = system: SK-MEL-28 melanoma
[3] = system: NCI-H522 lung
[4] = system: A549 NSCLC
[5] = system: MDA-MB-231 breast
[6] = system: IGROV1 ovarian
[7] = system: SK-OV-3 ovarian
[8] = system: UACC-257 melanoma
[9] = system: EKVX NSCLC
[10] = system: OVCAR-8 ovarian
[11] = system: UACC-62 melanoma
[12] = system: SNB-75 CNS
[13] = system: NCI-H460 lung
[14] = system: KM12 colon
[15] = system: HCT-15 colon
[16] = system: CAKI-1 renal
[17] = system: SR leukemia
[18] = system: SNB-19 CNS
[19] = system: NCI-H23 lung
[20] = system: SK-MEL-2 melanoma
[21] = system: U251 CNS
[22] = system: BT-549 breast
[23] = system: A498 renal
[24] = system: HCC-2998 colon
[25] = system: K-562 leukemia
[26] = system: HL-60(TB) leukemia
[27] = system: DU-145 prostate
[28] = system: T-47D breast
[29] = system: OVCAR-5 ovarian
[30] = system: HOP-92 NSCLC
[31] = system: OVCAR-4 ovarian
[32] = system: RPMI-8226 leukemia
[33] = system: MDA-MB-435
[34] = system: PC-3 prostate
[35] = system: MOLT-4 leukemia
[36] = system: M14 melanoma
[37] = system: HT29 colon
[38] = system: SF-295 CNS
[39] = system: NCI-H226 lung
[40] = system: MALME-3M melanoma
[41] = system: CCRF-CEM leukemia
[42] = system: MCF7 breast
[43] = system: HCT-116 colon
[44] = system: SN12C renal
[45] = system: TK-10 renal
[46] = system: SW-620 colon
[47] = system: NCI/ADR-RES ovarian
[48] = system: SF-268 CNS
[49] = system: OVCAR-3 ovarian
[50] = system: HS 578T breast
[51] = system: LOX IMVI melanoma
[52] = system: COLO 205 colon
[53] = system: UO-31 renal
[54] = system: HOP-62 NSCLC
[55] = system: SK-MEL-5 melanoma
[56] = system: SF-539 CNS
[57] = system: 786-0 renal

With `COc1ccc(-c2cnc(NC(=O)CCCCCCNC(=O)C(O)(O)C(F)(F)F)s2)cc1` the GI50 [1] was 1010 nM, the TGI [1] was 4190 nM and the GI50 [2] was 1370 nM. For the same compound, the TGI [2] was greater than 30800 nM, the GI50 [3] was 908 nM and the TGI [3] was 4560 nM. For the same compound, the GI50 [4] was 1380 nM, the TGI [4] was 11500 nM and the GI50 [5] was 719 nM. It also gave a TGI [5] of 2500 nM, a GI50 [6] of 987 nM and a TGI [6] of 5310 nM. It also gave a GI50 [7] of 863 nM, a TGI [7] of 2270 nM and a GI50 [8] of 1570 nM. The TGI [8] was 24600 nM, the GI50 [9] was 1970 nM and the TGI [9] was greater than 30800 nM. It also gave a GI50 [10] of 967 nM, a TGI [10] of 6850 nM and a GI50 [11] of 662 nM. For the same compound, the TGI [11] was 1880 nM, the GI50 [12] was 1760 nM and the TGI [12] was greater than 30800 nM. For the same compound, the GI50 [13] was 735 nM, the TGI [13] was 5790 nM and the GI50 [14] was 1080 nM. It also gave a TGI [14] of 5480 nM, a GI50 [15] of 1600 nM and a TGI [15] of 8010 nM. The GI50 [16] was 975 nM, the TGI [16] was 7450 nM and the GI50 [17] was 601 nM. For the same compound, the TGI [17] was greater than 30800 nM, the GI50 [18] was 1280 nM and the TGI [18] was 9440 nM. The GI50 [19] was 1230 nM, the TGI [19] was 8080 nM and the GI50 [20] was 1010 nM. The TGI [20] was 4490 nM, the GI50 [21] was 862 nM and the TGI [21] was 3780 nM. For the same compound, the GI50 [22] was 1810 nM, the TGI [22] was 12900 nM and the GI50 [23] was 288 nM. It also gave a TGI [23] of 1530 nM, a GI50 [24] of 1360 nM and a TGI [24] of 4530 nM. For the same compound, the GI50 [25] was 709 nM, the TGI [25] was greater than 30800 nM and the GI50 [26] was 1400 nM. It also gave a TGI [26] greater than 30800 nM, a GI50 [27] of 1030 nM and a TGI [27] of 7670 nM. For the same compound, the GI50 [28] was 864 nM, the TGI [28] was 3780 nM and the GI50 [29] was 907 nM. The TGI [29] was 5500 nM, the GI50 [30] was 561 nM and the TGI [30] was 2110 nM. For the same compound, the GI50 [31] was 2110 nM, the TGI [31] was greater than 30800 nM and the GI50 [32] was 857 nM. The TGI [32] was greater than 30800 nM, the GI50 [33] was 1000 nM and the TGI [33] was 10200 nM. The GI50 [34] was 1210 nM, the TGI [34] was greater than 30800 nM and the GI50 [35] was 1100 nM. For the same compound, the TGI [35] was greater than 30800 nM, the GI50 [36] was 1450 nM and the TGI [36] was greater than 30800 nM. It also gave a GI50 [37] of 946 nM, a TGI [37] greater than 30800 nM and a GI50 [38] of 742 nM. For the same compound, the TGI [38] was 1820 nM, the GI50 [39] was 2200 nM and the TGI [39] was 12000 nM. It also gave a GI50 [40] of 1020 nM, a TGI [40] of 3360 nM and a GI50 [41] of 1340 nM. For the same compound, the TGI [41] was greater than 30800 nM, the GI50 [42] was 1310 nM and the TGI [42] was greater than 30800 nM. It also gave a GI50 [43] of 540 nM, a TGI [43] of 4410 nM and a GI50 [44] of 1210 nM. The TGI [44] was 10600 nM, the GI50 [45] was 481 nM and the TGI [45] was greater than 30800 nM. It also gave a GI50 [46] of 623 nM, a TGI [46] of 2360 nM and a GI50 [47] of 1610 nM. The TGI [47] was 8780 nM, the GI50 [48] was 1130 nM and the TGI [48] was 6260 nM. The GI50 [49] was 635 nM, the TGI [49] was 2110 nM and the GI50 [50] was 952 nM. The TGI [50] was 10500 nM, the GI50 [51] was 678 nM and the TGI [51] was 1760 nM. It also gave a GI50 [52] of 540 nM, a TGI [52] of 1280 nM and a GI50 [53] of 904 nM. For the same compound, the TGI [53] was 3980 nM, the GI50 [54] was 1140 nM and the TGI [54] was greater than 30800 nM. The GI50 [55] was 921 nM, the TGI [55] was 2860 nM and the GI50 [56] was 1370 nM. For the same compound, the TGI [56] was greater than 30800 nM, the GI50 [57] was 1270 nM and the TGI [57] was 15100 nM.
